Experimental data from patent US12077503B2, “Substituted cyclic amides and their use as herbicides” (FMC CORPORATION, priority 2015, dated 2024).
Read-outs that look alike come from different tables or passages of the source.

Legend:
Assay type in all cases: in vivo
[1] = tested on: sedge, umbrella (small-flower umbrella sedge, Cyperus difformis); assay: Test B flooded paddy test; conditions: Cyperus difformis, 360 h, Flood, 250 g ai/ha; visually evaluated after 13 to 15 d; read-out: Plant response rating, Sedge, Umbrella (0 to 100 scale where 0 is no effect and 100 is complete control)
Outline: (§1)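 Visual ratings (0 none to 100 complete control) are relative to untreated plants, taken 13–15 d after treatment in a greenhouse. Test material went straight into floodwater standing 3 cm above the soil, kept constant, on plants at the 2-leaf stage.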

[2] = tested on: rice (Oryra sativa); assay: Test B flooded paddy test; conditions: Oryza sativa, 360 h, Flood, 250 g ai/ha; visually evaluated after 13 to 15 d; read-out: Plant response rating, Rice (0 to 100 scale where 0 is no effect and 100 is complete control)
Outline: as §1

[3] = tested on: ducksalad (Heteranthera limosa); assay: Test B flooded paddy test; conditions: Heteranthera limosa, 360 h, Flood, 250 g ai/ha; visually evaluated after 13 to 15 d; read-out: Plant response rating, Ducksalad (0 to 100 scale where 0 is no effect and 100 is complete control)
Outline: as §1

[4] = tested on: barnyardgrass (Echinochloa crus-galli); assay: Test B flooded paddy test; conditions: Echinochloa crus-galli, 360 h, Flood, 250 g ai/ha; visually evaluated after 13 to 15 d; read-out: Plant response rating, Barnyardgrass (0 to 100 scale where 0 is no effect and 100 is complete control)
Outline: as §1

[5] = tested on: ragweed (common ragweed, Ambrosia elatior); assay: Test A postemergence; conditions: Ambrosia artemisiifolia, post-emergence, 240 h, Postemergence; for pest or weed control at 125 g/ha: 125 g ai/ha; for pest or weed control at 500 g/ha: 500 g ai/ha, visual injury, 0 to 100 scale (0 no effect, 100 complete control), approx. 10 d
Outline: (§2)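 Ratings of 0 (no effect) to 100 (complete control) come from visual comparison with untreated controls roughly 10 d after treatment. Test chemicals, formulated in a non-phytotoxic solvent mixture with surfactant, were applied either as a preemergence directed soil spray on seeded soil or postemergence to one- to two-leaf plants 2 to 10 cm tall.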

[6] = tested on: corn (Zea mays); assay: Test A postemergence; conditions: Zea mays, post-emergence, 240 h, Postemergence; for Corn plant response rating (crop injury, 0 = no effect, 100 = complete kill) at 500 g/ha: 500 g ai/ha, visual injury, 0 to 100 scale (0 no effect, 100 complete control), approx. 10 d
Outline: as §2

[7] = tested on: pigweed (Amaranthus retroflexus); assay: Test A postemergence; conditions: Amaranthus retroflexus, post-emergence, 240 h, Postemergence; for pest or weed control at 125 g/ha: 125 g ai/ha; for pest or weed control at 500 g/ha: 500 g ai/ha, visual injury, 0 to 100 scale (0 no effect, 100 complete control), approx. 10 d
Outline: as §2

[8] = tested on: Kochia (Kochia scoparia); assay: Test A postemergence; conditions: Bassia scoparia, post-emergence, 240 h, Postemergence; for pest or weed control at 125 g/ha: 125 g ai/ha; for pest or weed control at 500 g/ha: 500 g ai/ha, visual injury, 0 to 100 scale (0 no effect, 100 complete control), approx. 10 d
Outline: as §2

[9] = tested on: giant foxtail (Setaria faberii); assay: Test A postemergence; conditions: Setaria faberi, post-emergence, 240 h, Postemergence; for pest or weed control at 125 g/ha: 125 g ai/ha; for pest or weed control at 500 g/ha: 500 g ai/ha, visual injury, 0 to 100 scale (0 no effect, 100 complete control), approx. 10 d
Outline: as §2

[10] = tested on: barnyardgrass (Echinochloa crus-galli); assay: Test A postemergence; conditions: Echinochloa crus-galli, post-emergence, 240 h, Postemergence; for pest or weed control at 125 g/ha: 125 g ai/ha; for pest or weed control at 500 g/ha: 500 g ai/ha, visual injury, 0 to 100 scale (0 no effect, 100 complete control), approx. 10 d
Outline: as §2

[11] = tested on: ryegrass, Italian (Italian ryegrass, Lolium multiflorum); assay: Test A postemergence; conditions: Lolium multiflorum, post-emergence, 240 h, Postemergence; for pest or weed control at 125 g/ha: 125 g ai/ha; for pest or weed control at 500 g/ha: 500 g ai/ha, visual injury, 0 to 100 scale (0 no effect, 100 complete control), approx. 10 d
Outline: as §2

[12] = tested on: blackgrass (Alopecurus myosuroides); assay: Test A postemergence; conditions: Alopecurus myosuroides, post-emergence, 240 h, Postemergence; for pest or weed control at 125 g/ha: 125 g ai/ha; for pest or weed control at 500 g/ha: 500 g ai/ha, visual injury, 0 to 100 scale (0 no effect, 100 complete control), approx. 10 d
Outline: as §2

[13] = tested on: wheat (Triticum aestivum); assay: Test A postemergence; conditions: Triticum aestivum, post-emergence, 240 h, Postemergence; for plant injury at 125 g/ha: 125 g ai/ha; for plant injury at 500 g/ha: 500 g ai/ha, visual injury, 0 to 100 scale (0 no effect, 100 complete control), approx. 10 d
Outline: as §2

[14] = tested on: Galium (catchweed bedstraw, Galium aparine); assay: Test A postemergence; conditions: Galium, post-emergence, 240 h, Postemergence; for pest or weed control at 125 g/ha: 125 g ai/ha; for pest or weed control at 500 g/ha: 500 g ai/ha, visual injury, 0 to 100 scale (0 no effect, 100 complete control), approx. 10 d
Outline: as §2

[15] = read-out: Plant response rating, Ragweed
[16] = read-out: Plant response rating, Pigweed
[17] = read-out: Plant response rating, Kochia
[18] = read-out: Plant response rating, Foxtail, Giant
[19] = read-out: Plant response rating, Barnyardgrass
[20] = read-out: Plant response rating, Ryegrass, Italian
[21] = read-out: Plant response rating, Blackgrass
[22] = read-out: Plant response rating, Wheat
[23] = read-out: Plant response rating, Galium

| Structure (SMILES) | pest or weed control at 250 g/ha [1] [%] | pest or weed control at 250 g/ha [2] [%] | pest or weed control at 250 g/ha [3] [%] | pest or weed control at 250 g/ha [4] [%] | pest or weed control at 500 g/ha [5, 15] [%] | Corn plant response rating (crop injury, 0 = no effect, 100 = complete kill) at 500 g/ha [6] [%] | pest or weed control at 500 g/ha [7, 16] [%] | pest or weed control at 500 g/ha [8, 17] [%] | pest or weed control at 500 g/ha [9, 18] [%] | pest or weed control at 500 g/ha [10, 19] [%] | pest or weed control at 500 g/ha [11, 20] [%] | pest or weed control at 500 g/ha [12, 21] [%] | plant injury at 500 g/ha [13, 22] [%] | pest or weed control at 500 g/ha [14, 23] [%] | other results |
| --- | --- | --- | --- | --- | --- | --- | --- | --- | --- | --- | --- | --- | --- | --- | --- |
| CSc1ccccc1NC(=O)[C@H]1C(=O)N(C)C[C@@H]1c1ccc(C(F)(F)F)cc1 [Compound 1391] | 0 | 0 | 75 | 0 | 60 | 80 | 90 | 80 | 90 | 100 | 60 | 70 | 60 | 70 | pest or weed control at 125 g/ha ([5]; visual injury after approx. 10 d, 0 to 100 scale, 0 no effect, 100 complete control, read-out: Plant response rating, Ragweed): 20%; Corn plant response rating (crop injury, 0 = no effect, 100 = complete kill) at 125 g/ha ([6]; 125 g ai/ha, visual injury after approx. 10 d, 0 to 100 scale, 0 no effect, 100 complete control): 0%; pest or weed control at 125 g/ha ([7]; visual injury after approx. 10 d, 0 to 100 scale, 0 no effect, 100 complete control, read-out: Plant response rating, Pigweed): 70%; pest or weed control at 125 g/ha ([8]; visual injury after approx. 10 d, 0 to 100 scale, 0 no effect, 100 complete control, read-out: Plant response rating, Kochia): 70%; pest or weed control at 125 g/ha ([9]; visual injury after approx. 10 d, 0 to 100 scale, 0 no effect, 100 complete control, read-out: Plant response rating, Foxtail, Giant): 90%; pest or weed control at 125 g/ha ([10]; visual injury after approx. 10 d, 0 to 100 scale, 0 no effect, 100 complete control, read-out: Plant response rating, Barnyardgrass): 90%; pest or weed control at 125 g/ha ([11]; visual injury after approx. 10 d, 0 to 100 scale, 0 no effect, 100 complete control, read-out: Plant response rating, Ryegrass, Italian): 40%; pest or weed control at 125 g/ha ([12]; visual injury after approx. 10 d, 0 to 100 scale, 0 no effect, 100 complete control, read-out: Plant response rating, Blackgrass): 40%; plant injury at 125 g/ha ([13]; visual injury after approx. 10 d, 0 to 100 scale, 0 no effect, 100 complete control, read-out: Plant response rating, Wheat): 30%; pest or weed control at 125 g/ha ([14]; visual injury after approx. 10 d, 0 to 100 scale, 0 no effect, 100 complete control, read-out: Plant response rating, Galium): 70% |
| CN1CC[C@H](c2cccc(C(F)(F)F)c2)[C@@H](C(=O)Nc2cccc(F)c2F)C1=O [Compound 1330] | 0 | 0 | 90 | 85 | 20 | 0 | 0 | 20 | 90 | 90 | 20 | 70 | 70 | 30 | pest or weed control at 125 g/ha ([5]; visual rating about 10 d after treatment, read-out: Ragweed plant response rating (0 to 100 scale)): 0%; plant injury at 125 g/ha ([6]; 125 g ai/ha, visual rating about 10 d after treatment, read-out: Corn plant response rating (0 to 100 scale)): 90%; pest or weed control at 125 g/ha ([7]; visual rating about 10 d after treatment, read-out: Pigweed plant response rating (0 to 100 scale)): 0%; pest or weed control at 125 g/ha ([8]; visual rating about 10 d after treatment, read-out: Kochia plant response rating (0 to 100 scale)): 0%; pest or weed control at 125 g/ha ([9]; visual rating about 10 d after treatment, read-out: Foxtail, Giant plant response rating (0 to 100 scale)): 90%; pest or weed control at 125 g/ha ([10]; visual rating about 10 d after treatment, read-out: Barnyardgrass plant response rating (0 to 100 scale, 0 no effect, 100 complete control)): 90%; pest or weed control at 125 g/ha ([11]; visual rating about 10 d after treatment, read-out: Ryegrass, Italian plant response rating (0 to 100 scale)): 0%; pest or weed control at 125 g/ha ([12]; visual rating about 10 d after treatment, read-out: Blackgrass plant response rating (0 to 100 scale)): 50%; plant injury at 125 g/ha ([13]; visual rating about 10 d after treatment, read-out: Wheat plant response rating (0 to 100 scale)): 50%; pest or weed control at 125 g/ha ([14]; visual rating about 10 d after treatment, read-out: Galium plant response rating (0 to 100 scale)): 30% |
